{"source": "patent US8586628B2", "about": "“Use of Propineb as bird repellent” (Bayer Cropscience AG, priority 2009, dated 2013)", "tested_on": "pigeon", "test": "Screening experiment with pigeon on the repellency of treated maize seeds (two-bowl choice, treated vs untreated maize)", "format": "in vivo", "conditions": "for Food consumption of untreated maize (U), Day 1 / Food consumption of untreated maize (U), Day 2: untreated bowl beside treated bowl; for Mean food consumption of untreated maize per group and per day, day 0 / Mean food consumption of untreated maize per group and per day, day 1 / Mean food consumption of untreated maize per group and per day, day 3 / Food consumption of untreated maize (U), Mean/group / Food consumption of untreated maize (U), Mean/birds: untreated bowl; for Food consumption of untreated maize (U), Mean/group / Food consumption of treated maize (T), Mean/group: mean of 3 pigeons over Day 0-2; for Food consumption of untreated maize (U), Day 0: untreated bowl (40 g) offered beside treated bowl", "method": "Screening Experiment with Pigeon on the Repellency of Maize Seeds Treated with Different Thiram and Propineb Formulations\n15 singly housed pigeons were acclimated to maize as food source over a couple of days. From day—3 to day—1 they received exclusively untreated maize (40 g/bird). Food consumption was determined (see Table 1 below). All birds accepted maize seed as food. The different groups behaved similarly:\nFood was offered in 2 bowls, one with treated, the other with untreated maize. The position of the two bowls was changed from day to day as well as during the day. Food consumption was again measured (see Table 2 below)\nGroup 1 (Aviary 1 to 3): Thiram 160 g/dt\nGroup 2 (Aviary 4 to 6): Thiram 80 g/dt\nGroup 3 (Aviary 7 to 9): Propineb160 g/dt\nGroup 4 (Aviary 10 to 12):Propineb 80 g/dt", "key": {"[1]": {"conditions": "80 g/dt group, single pigeon, Day 1"}, "[2]": {"conditions": "80 g/dt group, mean per bird over Day 0-2"}}, "note": "“And” between values parts separate entries of the source, which are not always exact repeats. Equal entries are not always repeated.", "data": [{"molecule": "CN(C)C(=S)SSC(=S)N(C)C", "note": "[Thiram, reference compound]", "values": [{"measurement": "Food consumption of untreated maize (U), Day 1", "setting": "[1]", "value": "11.8 g and 18.4 g and 18.2 g"}, {"measurement": "Food consumption of untreated maize (U), Day 2", "setting": "80 g/dt group, single pigeon", "value": "14.5 g and 19.3 g and 19.7 g"}, {"measurement": "Mean food consumption of untreated maize per group and per day, day 0", "setting": "80 g/dt group", "value": 16.4, "unit": "g"}, {"measurement": "Mean food consumption of untreated maize per group and per day, day 1", "setting": "80 g/dt group", "value": 16.1, "unit": "g"}, {"measurement": "Mean food consumption of untreated maize per group and per day, day 3", "setting": "80 g/dt group", "value": 17.8, "unit": "g"}, {"measurement": "Food consumption of untreated maize (U), Mean/group", "setting": "80 g/dt group", "value": 16.8, "unit": "g"}, {"measurement": "Food consumption of untreated maize (U), Mean/birds", "setting": "[2]", "value": "13.6 g and 17.8 g and 18.9 g"}, {"measurement": "Food consumption of untreated maize (U), Day 0", "setting": "80 g/dt seed treatment group, single pigeon (aviary), Day 0", "value": "14.4 g and 15.8 g and 18.9 g"}, {"measurement": "Food consumption of untreated maize (U), Day 2", "setting": "160 g/dt group, single pigeon", "value": "14.5 g and 23.4 g and 23.0 g"}, {"measurement": "Mean food consumption of untreated maize per group and per day, day 0", "setting": "160 g/dt group", "value": 16.9, "unit": "g"}, {"measurement": "Mean food consumption of untreated maize per group and per day, day 1", "setting": "160 g/dt group", "value": 18.5, "unit": "g"}, {"measurement": "Mean food consumption of untreated maize per group and per day, day 3", "setting": "160 g/dt group", "value": 20.3, "unit": "g"}, {"measurement": "Food consumption of untreated maize (U), Mean/group", "setting": "160 g/dt group", "value": 18.6, "unit": "g"}, {"measurement": "Mean food consumption of treated maize per group and per day, day 0", "setting": "maize treated at 80 g/dt", "value": 0.9, "unit": "g"}, {"measurement": "Mean food consumption of treated maize per group and per day, day 1", "setting": "maize treated at 80 g/dt", "value": 0.2, "unit": "g"}, {"measurement": "Mean food consumption of treated maize per group and per day, day 3", "setting": "maize treated at 80 g/dt", "value": 1.1, "unit": "g"}, {"measurement": "Food consumption of treated maize (T), Mean/group", "setting": "maize treated at 80 g/dt", "value": 0.7, "unit": "g"}, {"measurement": "Mean food consumption of treated maize per group and per day, day 0", "setting": "maize treated at 160 g/dt", "value": 6.0, "unit": "g"}, {"measurement": "Mean food consumption of treated maize per group and per day, day 1", "setting": "maize treated at 160 g/dt", "value": 5.3, "unit": "g"}, {"measurement": "Mean food consumption of treated maize per group and per day, day 3", "setting": "maize treated at 160 g/dt", "value": 2.8, "unit": "g"}, {"measurement": "Food consumption of treated maize (T), Mean/group", "setting": "maize treated at 160 g/dt", "value": 4.6, "unit": "g"}, {"measurement": "Food consumption of treated maize (T), Mean/birds", "setting": "maize treated at 160 g/dt, mean per bird over Day 0-2", "value": 0.0, "unit": "g"}]}, {"molecule": "Propineb", "values": [{"measurement": "Food consumption of untreated maize (U), Day 1", "setting": "[1]", "value": "17.5 g and 23.2 g and 20.6 g"}, {"measurement": "Food consumption of untreated maize (U), Day 2", "setting": "80 g/dt group, single pigeon", "value": "25.9 g and 27.5 g and 28.6 g"}, {"measurement": "Mean food consumption of untreated maize per group and per day, day 0", "setting": "80 g/dt group", "value": 14.1, "unit": "g"}, {"measurement": "Mean food consumption of untreated maize per group and per day, day 1", "setting": "80 g/dt group", "value": 20.4, "unit": "g"}, {"measurement": "Mean food consumption of untreated maize per group and per day, day 3", "setting": "80 g/dt group", "value": 27.3, "unit": "g"}, {"measurement": "Food consumption of untreated maize (U), Mean/group", "setting": "80 g/dt group", "value": 20.6, "unit": "g"}, {"measurement": "Food consumption of untreated maize (U), Mean/birds", "setting": "[2]", "value": "20.1 g and 23.6 g and 18.0 g"}, {"measurement": "Food consumption of untreated maize (U), Day 1", "setting": "160 g/dt group, single pigeon, Day 1", "value": "24.6 g and 19.5 g and 30.2 g"}, {"measurement": "Food consumption of untreated maize (U), Day 2", "setting": "160 g/dt group, single pigeon", "value": "26.1 g and 19.9 g and 28.3 g"}, {"measurement": "Mean food consumption of untreated maize per group and per day, day 0", "setting": "160 g/dt group", "value": 22.6, "unit": "g"}, {"measurement": "Mean food consumption of untreated maize per group and per day, day 1", "setting": "160 g/dt group", "value": 24.8, "unit": "g"}, {"measurement": "Mean food consumption of untreated maize per group and per day, day 3", "setting": "160 g/dt group", "value": 24.8, "unit": "g"}, {"measurement": "Food consumption of untreated maize (U), Mean/group", "setting": "160 g/dt group", "value": 24.4, "unit": "g"}, {"measurement": "Food consumption of untreated maize (U), Mean/birds", "setting": "160 g/dt group, mean per bird over Day 0-2", "value": "24.6 g and 21.3 g and 26.2 g"}, {"measurement": "Food consumption of untreated maize (U), Day 0", "setting": "160 g/dt seed treatment group, single pigeon (aviary), Day 0", "value": "23.1 g and 24.6 g and 20.0 g"}, {"measurement": "Bird repellent activity compared with Thiram", "setting": "compared at the registered rate of Thiram, pigeon, treated maize seed", "value": "substantially better activity than Thiram"}, {"measurement": "Food consumption of treated maize (T), Day 1", "setting": "maize treated at 80 g/dt, choice with untreated, single pigeon, Day 1", "value": "2.9 g and 1.7 g and 1.8 g"}, {"measurement": "Food consumption of treated maize (T), Day 2", "setting": "maize treated at 80 g/dt, choice with untreated, single pigeon", "value": 0.0, "unit": "g"}, {"measurement": "Mean food consumption of treated maize per group and per day, day 0", "setting": "maize treated at 80 g/dt", "value": 2.8, "unit": "g"}, {"measurement": "Mean food consumption of treated maize per group and per day, day 1", "setting": "maize treated at 80 g/dt", "value": 2.1, "unit": "g"}, {"measurement": "Mean food consumption of treated maize per group and per day, day 3", "setting": "maize treated at 80 g/dt", "value": 0.0, "unit": "g"}, {"measurement": "Food consumption of treated maize (T), Mean/group", "setting": "maize treated at 80 g/dt", "value": 1.7, "unit": "g"}, {"measurement": "Food consumption of treated maize (T), Day 0", "setting": "maize treated at 160 g/dt, 40 g offered beside 40 g untreated, single pigeon (aviary), Day 0", "value": 0.0, "unit": "g"}, {"measurement": "Food consumption of treated maize (T), Day 2", "setting": "maize treated at 160 g/dt, choice with untreated, single pigeon", "value": 0.0, "unit": "g"}, {"measurement": "Mean food consumption of treated maize per group and per day, day 0", "setting": "maize treated at 160 g/dt", "value": 0.0, "unit": "g"}, {"measurement": "Mean food consumption of treated maize per group and per day, day 1", "setting": "maize treated at 160 g/dt", "value": 0.6, "unit": "g"}, {"measurement": "Mean food consumption of treated maize per group and per day, day 3", "setting": "maize treated at 160 g/dt", "value": 0.0, "unit": "g"}, {"measurement": "Food consumption of treated maize (T), Mean/group", "setting": "maize treated at 160 g/dt", "value": 0.2, "unit": "g"}]}]}
